Assay results reported in patent US20230348467A1, “Heteroaryl Derivative, Preparation Method Therefor, And Use Thereof” (Zhejiang Hisun Pharmaceutical Co., Ltd., priority 2020, published 2023).

Each molecule was assayed against recombinant human full-length SHP2 (Homo sapiens (Human), UniProt Q06124) (assay: Allosteric inhibition of full-length SHP2 enzyme (DiFMUP fluorescence)). Settings: full-length SHP2 0.5 nM, activating peptide 0.5 uM, DiFMUP substrate.
Assay type: biochemical
Description: The following method was used to determine the inhibition degrees of the compounds of the present invention on the activity of recombinant human full-length SHP2 in vitro. SHP2 was allosterically activated by the binding of di-tyrosyl-phosphorylated peptide to a Src homologous 2(SH2) domain of SHP2. An activation step of the latter leads to the self-inhibitory interface release of SHP2, and then activates SHP2 protein tyrosine phosphatase (PTP), which might be used for substrate recognition and reaction catalysis.
The experimental process was briefly described as follows: Test compounds were first dissolved in DMSO to prepare storage solutions. […] Then, the compounds to be tested were added in a concentration range of 0.00004-10 uM and incubated at 25° C. for 60 minutes. Then DiFMUP (Thermo, D6567) was added in the reaction and incubated at 25° C. for 30 minutes. After incubation, readings were taken using a microplate reader (BMG) with excitation and emission wavelengths of 340 nm and 450 nm, respectively.

recombinant human full-length SHP2, sequence (Q06124 whole entry): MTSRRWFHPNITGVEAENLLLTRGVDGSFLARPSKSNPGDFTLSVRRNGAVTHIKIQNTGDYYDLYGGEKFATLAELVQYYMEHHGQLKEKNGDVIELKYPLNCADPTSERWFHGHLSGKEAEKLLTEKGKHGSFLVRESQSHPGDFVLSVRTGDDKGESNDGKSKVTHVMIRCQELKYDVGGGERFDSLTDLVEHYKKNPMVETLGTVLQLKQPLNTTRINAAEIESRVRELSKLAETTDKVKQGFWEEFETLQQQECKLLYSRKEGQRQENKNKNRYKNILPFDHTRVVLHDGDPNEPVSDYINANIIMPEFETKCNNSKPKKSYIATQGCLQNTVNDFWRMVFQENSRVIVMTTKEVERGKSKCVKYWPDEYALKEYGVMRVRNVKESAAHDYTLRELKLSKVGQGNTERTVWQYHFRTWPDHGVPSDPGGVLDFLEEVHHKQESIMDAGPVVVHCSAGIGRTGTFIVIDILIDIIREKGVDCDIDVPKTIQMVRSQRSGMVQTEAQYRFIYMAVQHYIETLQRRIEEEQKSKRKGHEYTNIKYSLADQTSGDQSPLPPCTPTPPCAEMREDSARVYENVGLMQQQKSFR

Compound	IC50
Cc1cccc(-c2n[nH]c3nc(N4CCC(N)(c5ccccc5)CC4)nc(C(N)=O)c23)c1Cl [Example 29, 6-(4-amino-4-phenylpiperidin-1-yl)-3-(2-chloro-3-methylphenyl)-1H-pyrazolo[3,4-d]pyrimidine-4-carboxamide]	3 nM
CC1(N)CCN(c2nc(C(N)=O)c3c(-c4cccc(Cl)c4Cl)n[nH]c3n2)CC1 [Example 2, 6-(4-amino-4-methylpiperidin-1-yl)-3-(2,3-dichlorophenyl)-1H-pyrazolo[3,4-d]pyrimidine-4-carboxamide]	29 nM
NC1(c2ccccc2Cl)CCN(c2nc(C(=O)O)c3c(-c4cccc(Cl)c4Cl)n[nH]c3n2)CC1 [Example 23, 6-(4-amino-4-(2-chlorophenyl)piperidin-1-yl)-3-(2,3-dichlorophenyl)-1H-pyrazolo[3,4-d]pyrimidine-4-carboxylic acid]	2 nM
NC(=O)c1nc(N2CCC(N)CC2)nc2[nH]nc(-c3cccc(Cl)c3Cl)c12 [Example 15, 6-(4-Aminopiperidin-1-yl)-3-(2,3-dichlorophenyl)-1H-pyrazolo[3,4-d]pyrimidine-4-carboxamide]	24 nM
COc1ccc(C2(N)CCN(c3nc(C(N)=O)c4c(-c5cccc(Cl)c5Cl)n[nH]c4n3)CC2)cc1 [Example 46, 6-(4-amino-4-(4-methoxyphenyl)piperidin-1-yl)-3-(2,3-dichlorophenyl)-1H-pyrazolo[3,4-d]pyrimidine-4-carboxamide]	3 nM
NC(=O)c1nc(N2[C@@H]3CC[C@H]2C[C@H](N)C3)nc2[nH]nc(-c3cccc(Cl)c3Cl)c12 [Example 8, 6-((exo)-3-amino-8-azabicyclo[3.2.1]octan-8-yl)-3-(2,3-dichlorophenyl)-1H-pyrazolo[3,4-d]pyrimidine-4-carboxamide]	5 nM
COc1nccc(-c2n[nH]c3nc(N4CCC(N)(c5ccccc5F)CC4)nc(C(N)=O)c23)c1Cl [Example 32, 6-(4-amino-4-(2-fluorophenyl)piperidin-1-yl)-3-(3-chloro-2-methoxypyridin-4-yl)-1H-pyrazolo[3,4-d]pyrimidine-4-carboxamide]	10 nM
NC(=O)c1nc(N2CCC(N)(c3c(F)cccc3F)CC2)nc2[nH]nc(-c3cccc(Cl)c3Cl)c12 [Example 11, 6-(4-amino-4-(2,6-difluorophenyl)piperidin-1-yl)-3-(2,3-dichlorophenyl)-1H-pyrazolo[3,4-d]pyrimidine-4-carboxamide]	17 nM
NC(=O)c1nc(N2CCC(N)(c3ccccn3)CC2)nc2[nH]nc(-c3cccc(Cl)c3Cl)c12 [Example 38, 6-(4-amino-4-(pyridin-2-yl)piperidin-1-yl)-3-(2,3-dichlorophenyl)-1H-pyrazolo[3,4-d]pyrimidine-4-carboxamide]	27 nM
NC(=O)c1nc(N2[C@@H]3CC[C@H]2C[C@@H](N)C3)nc2[nH]nc(-c3cccc(Cl)c3Cl)c12 [Example 7, 6-((endo)-3-amino-8-azabicyclo[3.2.1]octan-8-yl)-3-(2,3-dichlorophenyl)-1H-pyrazolo[3,4-d]pyrimidine-4-carboxamide]	14 nM
NC1(c2ccccc2)CCN(c2nc(-c3nnn[nH]3)c3c(-c4cccc(Cl)c4Cl)n[nH]c3n2)CC1 [Example 30, 1-(3-(2,3-dichlorophenyl)-4-(1H-tetrazol-5-yl)-1H-pyrazolo[3,4-d]pyrimidin-6-yl)-4-phenylpiperidin-4-amine]	3 nM
CC1(N)CCN(c2nc(C(N)=O)c3c(-c4cccc(Br)c4Cl)n[nH]c3n2)CC1 [Example 12, 6-(4-amino-4-methylpiperidin-1-yl)-3-(3-bromo-2-chlorophenyl)-1H-pyrazolo[3,4-d]pyrimidine-4-carboxamide]	8 nM
NC(=O)c1nc(N2CCC(N)(CO)CC2)nc2[nH]nc(-c3cccc(Cl)c3Cl)c12 [Example 13, 6-(4-Amino-4-(hydroxymethyl)piperidin-1-yl)-3-(2,3-dichlorophenyl)-1H-pyrazolo[3,4-d]pyrimidine-4-carboxamide]	10 nM
